# Where a name gives a salt, the structure may show the parent alone.
# Legend:
# [1] = cited from earlier work
# [2] = tested on: virus Herpès simplex type I; experiment: In vivo cutaneous HSV I infection in guinea pigs, local application; set-up: species or system cobayes albinos (Dunkin-Hartley, IFFA-CREDO); conditions: for infection herpétique cutanée / lésions cutanées: cobayes, application locale deux fois par jour pendant 3 jours, observations jours 5 à 8; for % moyen d'activité: moyenne entre le jour 5 et le jour 8
# Method: L'expérimentation a été réalisée en application locale sur des cobayes albinos (Dunkin-Hartley, IFFA-CREDO) auxquels on a préalablement inoculé par scarification le virus Herpès simplex type I. Sur ces scarifications, on a appliqué 0,1 ml d'une solution de virus HSV I titrant 10 000 DI50 pour 100 µl. Un flanc des animaux a servi de témoin. Le traitement a été effectué deux fois par jour pendant 3 jours, la première application ayant lieu 18 h après l'inoculation.
# Les paramètres retenus pour déterminer la gravité des lésions cutanées sont : érythèmes, indurations, nombre et taille des vésicules, aires d'infection et présence ou absence de virus. Les observations sont réalisées 5, 6, 7 et 8 jours après l'inoculation.
# [3] = tested on: infections herpétiques buccales et vulvaires; experiment: Human clinical use in buccal and vulvar herpetic infections; assay type: in vivo, humaine
# zonas = experiment: Human clinical use in zona; assay type: in vivo; conditions: clinique humaine
# virus HSV I [4] = experiment: Anti-viral activity in HSV I-inoculated embryonic lung fibroblast culture; assay type: cell-based; conditions: HSV I 100 DE50 pour 10 µl, fibroblastes de poumon embryonnaire MCR5, observation 24h et 48h; "-" = absence d'activité
# Method: (§1) Dans un premier temps, on a donc déterminé l'activité virucide des différents composés testés par mise en contact du virus avec ces composés. Puis on a déterminé l'activité anti-virale des composés testés en inoculant le virus (sous la forme d'une suspension préalablement diluée dans du milieu de Hanks de manière à avoir une concentration en virus de 100 DE50 pour 10 µl de suspension) à une culture de fibroblastes de poumon embryonnaire (cellules commercialisées par la société Bio-Mérieux sous la référence MCR5), puis en traitant la culture cellulaire, inoculée par le virus, par les composés à tester, dilués également dans du milieu de Hanks. Les plaques de cultures cellulaires ont ensuite été observées au microscope inversé après 24h et 48h d'inoculation, ainsi que des cultures témoins non-inoculées et des virus témoins incubés sans composés. Les résultats sont rassemblés dans le tableau suivant: […]
# virus HSV I [5] = experiment: Virucidal activity by contact of the virus with the compounds, infra-cytotoxic doses; assay type: cell-based; conditions: doses infra-cytotoxiques, "-" = absence d'activité
# Method: as §1
Compound,solubilité dans l'alcool [1],solubilité dans l'eau [1],solubilité dans l'éther [1],infection herpétique cutanée / lésions cutanées [2],"% moyen d'activité ([2]; concentration 0,2 %)","% moyen d'activité ([2]; concentration 1,0 %)",résultats en clinique humaine [3],éruptions vésiculeuses et névralgies des territoires cutanés infectés (zonas),Concentrations minimales activité anti-virale (virus HSV I [4]) [µg/mL],Concentrations minimales activité virucide (virus HSV I [5]) [µg/mL],"% moyen d'activité ([2]; concentration 2,0 %)","% moyen d'activité ([2]; concentration 4,0 %)"
"Oc1cccc2cccnc12 [8-HQS, sulfate d'hydroxy-8 quinoléine]",faiblement soluble,soluble,insoluble,aucun effet,"0,0%",–,–,–,–,–,–,–
"Nc1nc2c(ncn2COCCO)c(=O)[nH]1 [Acyclovir, 2-amino-1,9-dihydro-9-[(2-hydroxyethoxy)methyl]-6H-purin-6-one]",–,–,–,–,–,"55,2%",–,–,–,–,–,–
acriflavine [ACF],partiellement soluble,soluble,pratiquement insoluble,réduisent significativement,"0,0%","44,5%",résultats favorables,réduit significativement,2,1,"81,5%","95,2%"
